This assay has as its system human pluripotent stem cells (hPSCs). The assay can be described thus: Mesendoderm induction: BRACHYURY immunofluorescence in hPSCs. The class given is cell-based. The procedure: For differentiation experiments, hESCs or hiPSCs can be grown on Geltrex, washed once with PBS and dissociated into single cells with Accutase ([…] Technologies). Cells are plated at a density of 4×10^4 cells/cm^2 onto Geltrex-coated plates in mTeSR1 medium supplemented with the ROCK inhibitor Y27632 10 μM (Stemgent). Cells are fed daily with mTeSR1 without Y27632 for 2-3 days until they reached 50% confluency. Mesendoderm differentiation-the media is changed to Advanced RPMI (A-RPMI, Invitrogen) supplemented with 1×L-glutamax and 1× penicillin/streptomycin and either CHIR99021 (CHIR, Stemgent), human Wnt3a (R&D systems), and/or human activin A (R&D systems) at the doses described. Definitive endoderm differentiation-cells are treated with […] for 24 hours, then […]+100 ng/mL of activin A for 2-3 days. Hepatic differentiation-cells at the definitive endoderm stage are treated with […]27 supplement (Invitrogen)+20 ng/mL BMP-4 (R&D systems)+10 ng/mL FGF2 (Invitrogen) for 5 days, then […]27+10 ng/mL HGF for 5 days, then HCM Hepatocyte Culture Medium (Lonza) supplemented with 20 ng/mL Oncostatin M and 10 ng/mL HGF (Peprotech) for 5 days. Pancreatic differentiation-cells at the definitive endoderm stage are treated with DMEM/F12+2% FBS (Hyclone)+50 ng/mL FGF7 (R&D systems) for 2 days, then high-glucose DMEM (Mediatech)+1% B27+2 μM retinoic acid (Sigma)+0.25 μM KAAD cyclopamine (EMD Millipore)+100 ng/mL recombinant human Noggin (R&D systems) for 4 days, then high-glucose DMEM+1% B27+100 ng/mL Noggin+300 nM indolactam V (Stemgent)+1 μM ALK5 inhibitor II (Axxora) for 4 days. Anterior foregut endoderm differentiation-cells at the definitive endoderm stage are treated with DMEM/F12+1×L-glu+1×B27+200 ng/mL Noggin+10 μM SB431542 (Stemgent) for 3 days. […] Immunofluorescence is visualized using an inverted fluorescence microscope (Nikon Eclipse Ti, Tokyo, Japan). Quantification is performed by counting a minimum of five random fields at 10× magnification. […]

For `Cc1c[nH]c(-c2cnc(NCCNc3ccc(C#N)cn3)nc2-c2ccc(Cl)cc2Cl)n1` [CHIR99021], the “cells expressing BRACHY” value (5 μM, 24 hours) turned out to be 98.7±1.3%. The “efficiency of BRACHYURY+MIXL1+ mesendoderm differentiation” value (summary statement) is given as about 100%.

For the origin of these results see US20160272937A1, “METHODS OF GENERATING INTERMEDIATE MESODERM CELLS FROM HUMAN PLURIPOTENT STEM CELLS” (THE BRIGHAM AND WOMEN'S HOSPITAL, INC., priority 2013, published 2016).
